Laboratory results taken from article PMC7866972, “Crosstalk of Cancer Signaling Pathways by Cyclic Hexapeptides and Anthraquinones from Rubia cordifolia” (Molecules, 2021).
In brackets after ≈: the same amount, converted by molar mass. Entries after “also recorded” stand apart in the source; their conditions may differ. Read-outs that look alike come from different tables or passages of the source.

Key:
Format in all cases: cell-based
[1] = tested on: Smad; experiment: Smad luciferase reporter assay (TGF-beta induced); conditions: for percentage of luciferase induction Smad/TGF-b: Hela cells, 1µg/ml, 4 h
Protocol: (§1) Hela cells from ATCC were plated in white opaque 384 well plates at a density of 4300 cells/well in 30 µL of a growth medium (DMEM with 10% FBS and 1% Pen/step). The next day, the medium was aspirated and replaced with DMEM containing 10% FBS. The cells were transfected with respective plasmids using the X-tremeGENE HP transfection reagent (Roche). Luciferase vectors used in this assay are summarized in Table S2, Supporting Information. After 24 h of transfection, the test agents were added to the transfected cells, followed 30 min later by an inducing agent (IL-6 for Stat 3, TGF-beta for Smad, m-wnt3a for Wnt and PMA for AP-1, NF-kB, E2F, Myc, ETS, Notch and Hedgehog). No inducer was added for FoXO, miR-21, and […]. After 4 h or 6 h of induction, the cells were lysed by the addition of the One-Glo luciferase assay system (Promega, Madison, WI, USA). The light output was detected in a Glomax Multi+ detection system with the Instinct Software (Promega, Madison, WI, USA). This luciferase assay determines if the test agent was able to inhibit the activation of cancer-related signaling pathways. In the case of FoxO and mi-R21, the enhanced luciferase activity by the test agent was assessed.

[2] = tested on: FoxO; experiment: FoxO luciferase reporter assay (no inducer); conditions: for percentage of luciferase induction FoxO: Hela cells, 1µg/ml, 6 h
Protocol: as §1

[3] = tested on: Ets; experiment: Ets luciferase reporter assay (PMA induced); conditions: Homo sapiens; for activity at 1 µg/mL: Hela cells, 4 h, read-out: percentage of luciferase induction Ets/PMA
Protocol: as §1

[4] = tested on: miR-21; experiment: miR-21 luciferase reporter assay (no inducer); conditions: Hela cells, 1µg/ml, 6 h
Protocol: as §1

[5] = tested on: Myc; experiment: Myc luciferase reporter assay (PMA induced); conditions: Homo sapiens; for activity at 1 µg/mL: Hela cells, 4 h, read-out: percentage of luciferase induction Myc/PMA
Protocol: as §1

[6] = tested on: NF-κB; experiment: NF-κB luciferase reporter assay (PMA induced); conditions: Homo sapiens; for activity at 1 µg/mL: Hela cells, 4 h, read-out: percentage of luciferase induction NF-kB/PMA
Protocol: as §1

[7] = tested on: E2F; experiment: E2F luciferase reporter assay (PMA induced); conditions: Homo sapiens; for activity at 1 µg/mL: Hela cells, 4 h, read-out: percentage of luciferase induction E2F/PMA
Protocol: as §1

[8] = tested on: Hedgehog; experiment: Hedgehog luciferase reporter assay (PMA induced); conditions: Homo sapiens; for activity at 1 µg/mL: Hela cells, 6 h, read-out: percentage of luciferase induction Hdghog/PMA
Protocol: as §1

[9] = tested on: Ap-1; experiment: AP-1 luciferase reporter assay (PMA induced); conditions: for activity at 1 µg/mL: Hela cells, 4 h, read-out: percentage of luciferase induction Ap-1/PMA
Protocol: as §1

[10] = tested on: pTK control vector; experiment: pTK control vector luciferase assay (minimal thymidine kinase promoter); conditions: no inducer; for percentage of luciferase induction pTK: Hela cells, 1µg/ml
Protocol: as §1

[11] = tested on: cancer-related signaling pathways in HeLa cells; experiment: Panel of luciferase reporter genes for cancer-related signaling pathways
Protocol: as §1
(§2) The simulated gastric fluid was prepared as described in the United States Pharmacopoeia (USP, 1995) and consists of 0.2% w/v of NaCl and 0.7% v/v of hydrochloric acid at pH 1.2. Aliquots (48 µL) of SGF were placed in 1.5-mL microcentrifuge tubes and incubated in a water bath at 37 °C [35]. In addition, 2 µL of compound 6 (10 mg/mL in DMSO) was added to each of the SGF vials to start the digestion reaction. The incubation was continued for 60 min and the digestion was stopped with 150 µL of ice-cold cell culture media. The digested samples were used for the cytotoxicity and luciferase assays at different concentrations and the activities were compared between the untreated and SGF treated peptide samples.

[12] = tested on: T98G cells; experiment: Cytotoxicity assay (WST-8) of SGF/SIF treated and untreated peptide; conditions: 48 h, SGF pH 1.2 60 min or SIF pH 7.5 with pancreatin 8 h, 37 °C, unpaired t-test
Protocol: (§3) T98G and MDA-MB 231 cells from ATCC, were plated in clear 384-well plates at an initial density of 1700 cells/well for T98G cells and 2500 cells/well of MDA-MB 231 cells in 40 µL of a growth medium (DMEM with 10% FBS and 1% Pen/step). The next day, the test agents were added at the specified concentration, the treatment continued for 48 h, and the cell viability was finally assessed using the WST-8 assay Cell Counting Kit from Bimake, according to the manufacturer’s instructions. The results were measured by absorbance at 450 nm using the SpectraMax M5 plate reader (Molecular Devices). The cell viability was calculated in comparison to the DMSO control.
as §2, with “samples. […]” for “samples.”

[13] = tested on: MDA-MB 231 cells; experiment: as above; conditions: 48 h, SGF pH 1.2 60 min or SIF pH 7.5 with pancreatin 8 h, 37 °C, unpaired t-test
Protocol: as §3
as §2, with “samples. […]” for “samples.”

[14] = tested on: Wnt; experiment: Wnt luciferase reporter assay (m-wnt3a induced); conditions: Homo sapiens; for activity at 1 µg/mL: Hela cells, 6 h, read-out: percentage of luciferase induction Wnt/m-wnt 3a
Protocol: as §1

[15] = tested on: Notch; experiment: Notch luciferase reporter assay (PMA induced); conditions: Homo sapiens; for activity at 1 µg/mL: Hela cells, 6 h, read-out: percentage of luciferase induction Notch/PMA
Protocol: as §1

[16] = tested on: Stat3; experiment: Stat3 luciferase reporter assay (IL-6 induced); conditions: Homo sapiens; for activity at 1 µg/mL: Hela cells, 4 h, read-out: percentage of luciferase induction Stat3/IL-6
Protocol: as §1

[17] = SGF treated compound (pH 1.2, 37 °C, 60 min)
[18] = HeLa cells, agent added 30 min before PMA, harvested 4 h later, ND = No activity detected

Structure (SMILES): COc1ccc(C[C@H]2C(=O)N[C@@H](C)C(=O)N(C)[C@H]3Cc4ccc(cc4)Oc4cc(ccc4O)C[C@@H](C(=O)N[C@H](C)C(=O)N[C@@H](C)C(=O)N2C)N(C)C3=O)cc1 [Compound 6, deoxybouvardin]
- percentage of luciferase induction Smad/TGF-b [1, 17]: 41%
- percentage of luciferase induction Smad/TGF-b ([1]; untreated compound): 33%
- IC50 ([1]; Homo sapiens, HeLa cells, agent added 30 min before TGF-beta, harvested 4 h later, ND = No activity detected): 0.3 µg/mL (≈ 0.396 µM)
- percentage of luciferase induction FoxO [2, 17]: 68%
- percentage of luciferase induction FoxO ([2]; untreated compound): 51%
- IC50 ([2]; Homo sapiens, HeLa cells, harvested 6 h later, ND = No activity detected): 0.1 µg/mL (≈ 0.132 µM)
- IC50 [3, 18]: 0.18 µg/mL (≈ 0.238 µM)
- activity at 1 µg/mL [3, 17]: 58%
- activity at 1 µg/mL ([3]; untreated compound): 60%
- percentage of luciferase induction miR21 [4, 17]: 150%
- percentage of luciferase induction miR21 ([4]; untreated compound): 183%
- IC50 [5, 18]: 0.075 µg/mL (≈ 0.0991 µM)
- activity at 1 µg/mL [5, 17]: 20%
- activity at 1 µg/mL ([5]; untreated compound): -8%
- IC50 [6, 18]: 0.17 µg/mL (≈ 0.225 µM)
- activity at 1 µg/mL [6, 17]: 34%
- activity at 1 µg/mL ([6]; untreated compound): 33%
- IC50 [7, 18]: 0.36 µg/mL (≈ 0.476 µM)
- activity at 1 µg/mL [7, 17]: 8%
- activity at 1 µg/mL ([7]; untreated compound): 82%
- IC50 ([8]; HeLa cells, agent added 30 min before PMA, harvested 6 h later, ND = No activity detected, read-out: IC50 Hdghog/PMA): 0.2 µg/mL (≈ 0.264 µM)
- activity at 1 µg/mL [8, 17]: 5%
- activity at 1 µg/mL ([8]; untreated compound): 1%
- IC50 [9, 18]: 0.22 µg/mL (≈ 0.291 µM)
- activity at 1 µg/mL [9, 17]: 43%
- activity at 1 µg/mL ([9]; untreated compound): 48%
- percentage of luciferase induction pTK [10, 17]: 48%
- percentage of luciferase induction pTK ([10]; untreated compound): 50%
- IC50 ([10]; Homo sapiens, HeLa cells, ND = No activity detected): 0.9 µg/mL (≈ 1.19 µM)
- activity of SGF treated peptide across the panel of cancer signaling pathways compared to untreated peptide ([11]; Hela cells, SGF treated, Table S1): comparable to the untreated peptide
- IC50 ([11]; Homo sapiens, HeLa cells, summary statement on Table 1, read-out: IC50 values for several pathways across the panel): < 0.5 µg/mL
- activity (cell viability) of SGF or SIF treated compared to untreated compound [12]: remained the same before and after the treatment; also recorded: non-significant
- activity (cell viability) of SGF or SIF treated compared to untreated compound [13]: remained the same before and after the treatment; also recorded: non-significant
- IC50 ([14]; HeLa cells, agent added 30 min before m-wnt 3a, harvested 6 h later, ND = No activity detected): 0.05 µg/mL (≈ 0.0661 µM)
- activity at 1 µg/mL [14, 17]: 12%
- activity at 1 µg/mL ([14]; untreated compound): 6%
- IC50 ([15]; HeLa cells, agent added 30 min before PMA, harvested 6 h later, ND = No activity detected): 0.093 µg/mL (≈ 0.123 µM)
- activity at 1 µg/mL [15, 17]: 56%
- activity at 1 µg/mL ([15]; untreated compound): 65%
- IC50 ([16]; HeLa cells, agent added 30 min before IL-6, harvested 4 h later, ND = No activity detected): 0.18 µg/mL (≈ 0.238 µM)
- activity at 1 µg/mL [16, 17]: -4%
- activity at 1 µg/mL ([16]; untreated compound): -4%
